The structures appear in SMILES notation.

As usually defined, the IC50 is the concentration that inhibits the measured activity by half.

T1 sequence (P23458 865-1154 limits assumed): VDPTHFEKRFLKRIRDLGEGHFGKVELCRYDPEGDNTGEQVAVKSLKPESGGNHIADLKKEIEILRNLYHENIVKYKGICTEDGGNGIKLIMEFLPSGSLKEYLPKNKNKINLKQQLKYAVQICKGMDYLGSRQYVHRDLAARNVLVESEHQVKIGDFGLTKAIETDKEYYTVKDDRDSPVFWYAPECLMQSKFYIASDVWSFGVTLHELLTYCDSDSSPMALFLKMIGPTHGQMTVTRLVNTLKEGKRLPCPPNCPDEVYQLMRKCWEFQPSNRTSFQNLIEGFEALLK

The assay concerns the target T1, recombinant JAK1 enzyme (Homo sapiens, UniProt P23458).
T1 construct: 8 nM of recombinant JAK1 enzyme (Insect expressed: V866-K1155); host or cells: insect cells
Briefly: JAK1 Kinase Assay (luciferase-luciferin-coupled chemiluminescence, ATP consumption). The format is biochemical. To be noted: 8 nM JAK1 (V866-K1155), 30 μM IRS-1 peptide (Y608), 2 μM ATP, 2 hours ambient temperature, KinaseGlo; read-out: JAK1 IRS-1tide Chemilum (IC50). How it is done: JAK1 Kinase Assay Used to Test Compounds
JAK1 Kinase activity was measured as the percent of ATP consumed following the kinase reaction using luciferase-luciferin-coupled chemiluminescence. The reaction was conducted in white medium binding 384-well microtiter plates. The kinase reaction were initiated by combining test compounds, 8 nM of recombinant JAK1 enzyme (Insect expressed: V866-K1155), 30 μM of IRS-1 peptide (Y608) and 2 μM ATP in buffer containing 20 mM Hepes (pH 7.5), 10 mM MgCl2, 0.01% Brij, 5% glycerol and 1 mM DTT in a 20 μL volume. The reaction mixture was incubated at ambient temperature for 2 hours. Following the kinase reaction, a 20 μL aliquot of KinaseGlo was added to stop the reaction and measure remaining ATP via detection of chemiluminescence using the Envison reader. Total ATP consumption was limited to 25-60%.
Background: Kinase-Glo reads ATP consumption through a luciferase reaction.
In the case of `CNc1nnc(-c2ccc(-c3nnc(Nc4cc(C(F)(F)F)cc(C(F)(F)F)c4)c4ccccc34)cc2)s1` [Compound 1, N-[3,5-bis(trifluoromethyl)phenyl]-4-{4-[5-(methylamino)-1,3,4-thiadiazol-2-yl]phenyl}phthalazin-1-amine], the IC50 was in the range of 2 to 30 µM.
Then `COC(=O)c1ccc(-c2nnc(Nc3cccc(C(C)(C)C)c3)c3ccccc23)cc1` [Compound 4, methyl 4-(4-{[3-(1,1-dimethylethyl)phenyl]amino}phthalazin-1-yl)benzoate], with 0.5 to 1 µM; and `O=c1[nH]ccn1-c1ccc(-c2nnc(Nc3cc(C(F)(F)F)cc(C(F)(F)F)c3)c3ccccc23)cc1` [Compound 5, 1-[4-(4-{[3,5-bis(trifluoromethyl)phenyl]amino}phthalazin-1-yl)phenyl]-1,3-dihydro-2H-imidazol-2-one], with no more than 0.15 µM; and `COC(=O)c1ccc(-c2nnc(Nc3cc(NCCCN(C)C)cc(C(F)(F)F)c3)c3ccccc23)cc1` [Compound 8, methyl 4-(4-{[3-{[3-(dimethylamino)propyl]amino}-5-(trifluoromethyl)phenyl]amino}phthalazin-1-yl)benzoate], with 0.15 to 0.5 µM.
Then `NC(=O)c1ccc(-c2nnc(Nc3cc(C(F)(F)F)cc(C(F)(F)F)c3)c3ccccc23)cc1` [Compound 9, 4-(4-{[3,5-bis(trifluoromethyl)phenyl]amino}phthalazin-1-yl)benzamide], with 1 to 2 µM.
Regarding `COC(=O)c1ccc(-c2nnc(Nc3cc(OCCN(C)C)cc(C(F)(F)F)c3)c3ccccc23)cc1` [Compound 10, methyl 4-(4-{[3-{[2-(dimethylamino)ethyl]oxy}-5-(trifluoromethyl)phenyl]amino}phthalazin-1-yl)benzoate], the IC50 is 0.15 to 0.5 µM.
To `CC(=O)c1ccc(-c2nnc(Nc3cc(C(F)(F)F)cc(C(F)(F)F)c3)c3ccccc23)s1` [Compound 12, 1-[5-(4-{[3,5-bis(trifluoromethyl)phenyl]amino}phthalazin-1-yl)-2-thienyl]ethanone] belongs 2 to 30 µM.
To `COC(=O)c1ccc(-c2nnc(Nc3cccc(C(F)(F)F)c3)c3cccnc23)cc1` [Compound 13] belongs 0.5 to 1 µM; to `COC(=O)c1ccc(-c2nnc(Nc3cc(Cl)cc(C(F)(F)F)c3)c3ccccc23)cc1` [Compound 14, methyl 4-(4-{[3-chloro-5-(trifluoromethyl)phenyl]amino}phthalazin-1-yl)benzoate], no more than 0.15 µM; to `COC(=O)c1ccc(-c2nnc(Nc3cc(C(=O)OC)cc(C(F)(F)F)c3)c3ccccc23)cc1` [Compound 15, methyl 3-[(4-{4-[(methyloxy)carbonyl]phenyl}phthalazin-1-yl)amino]-5-(trifluoromethyl)benzoate], 2 to 30 µM.
On to `COC(=O)c1ccc(-c2nnc(Nc3cccc(Cl)c3)c3ccccc23)cc1` [Compound 16, methyl 4-{4-[(3-chlorophenyl)amino]phthalazin-1-yl}benzoate], for which the IC50 fell in the range of 0.15 to 0.5 µM.
To `COC(=O)c1ccc(-c2nnc(Nc3cc(C(F)(F)F)cc(C(F)(F)F)c3)c3ccccc23)s1` [Compound 17, methyl 5-(4-{[3,5-bis(trifluoromethyl)phenyl]amino}phthalazin-1-yl)thiophene-2-carboxylate] belongs 2 to 30 µM; to `O=Cc1ccc(-c2nnc(Nc3cc(C(F)(F)F)cc(C(F)(F)F)c3)c3ccccc23)cc1` [Compound 18, 4-(4-{[3,5-bis(trifluoromethyl)phenyl]amino}phthalazin-1-yl)benzaldehyde], 2 to 30 µM; to `CCc1cc(Nc2nnc(-c3ccc(C(=O)OC)cc3)c3ccccc23)cc(C(F)(F)F)c1` [Compound 19, methyl 4-(4-{[3-ethyl-5-(trifluoromethyl)phenyl]amino}phthalazin-1-yl)benzoate], no more than 0.15 µM.
As to `COC(=O)c1ccc(-c2nnc(Nc3cc(N4CCN(C)CC4)cc(C(F)(F)F)c3)c3ccccc23)cc1` [Compound 20, methyl 4-(4-{[3-(4-methylpiperazin-1-yl)-5-(trifluoromethyl)phenyl]amino}phthalazin-1-yl)benzoate], the IC50 was in the range of 1 to 2 µM.
Consider `CCc1cccc(Nc2nnc(-c3ccc(C(=O)OC)cc3)c3ccccc23)c1` [Compound 21, methyl 4-{4-[(3-ethylphenyl)amino]phthalazin-1-yl}benzoate], for which the IC50 is 0.15 to 0.5 µM.
For the compound `COC(=O)c1ccc(-c2nnc(Nc3cc(CCCN(C)C)cc(C(F)(F)F)c3)c3ccccc23)cc1` [Compound 22, methyl 4-[4-({3-[3-(dimethylamino)propyl]-5-(trifluoromethyl)phenyl}amino)phthalazin-1-yl]benzoate], the IC50 is no more than 0.15 µM.
To `O=C1NCCN1c1ccc(-c2nnc(Nc3cc(C(F)(F)F)cc(C(F)(F)F)c3)c3ccccc23)cc1` [Compound 23, 1-[4-(4-{[3,5-bis(trifluoromethyl)phenyl]amino}phthalazin-1-yl)phenyl]imidazolidin-2-one] belongs no more than 0.15 µM.
Then `COC(=O)c1ccc(-c2nnc(Nc3ccc(Cl)c(C(F)(F)F)c3)c3ccccc23)cc1` [Compound 24, methyl 4-(4-{[4-chloro-3-(trifluoromethyl)phenyl]amino}phthalazin-1-yl)benzoate], with 0.5 to 1 µM.
To `COC(=O)c1ccc(-c2nnc(Nc3ccc(Cl)cc3)c3ccccc23)cc1` [Compound 26] belongs 1 to 2 µM.
With `O=C1OCc2cc(-c3nnc(Nc4cc(C(F)(F)F)cc(C(F)(F)F)c4)c4ccccc34)ccc21` [Compound 27, 5-(4-{[3,5-bis(trifluoromethyl)phenyl]amino}phthalazin-1-yl)-2-benzofuran-1(3H)-one], the IC50 is 2 to 30 µM.
As for `CC(=O)Nc1ccc(-c2nnc(Nc3cc(C(F)(F)F)cc(C(F)(F)F)c3)c3ccccc23)cc1` [Compound 28, N-[4-(4-{[3,5-bis(trifluoromethyl)phenyl]amino}phthalazin-1-yl)phenyl]acetamide], the IC50 fell in the range of 0.5 to 1 µM.
As to `COC(=O)c1ccc(-c2nnc(Nc3cccc(C(F)(F)F)c3)c3cnccc23)cc1` [Compound 29, methyl 4-(4-{[3-(trifluoromethyl)phenyl]amino}pyrido[3,4-d]pyridazin-1-yl)benzoate], the IC50 was 0.15 to 0.5 µM.
On to `COC(=O)c1ccc(-c2nnc(Nc3cc(CN(C)C)cc(C(F)(F)F)c3)c3ccccc23)cc1` [Compound 30, methyl 4-[4-({3-[(dimethylamino)methyl]-5-(trifluoromethyl)phenyl}amino)phthalazin-1-yl]benzoate], for which the IC50 is 0.5 to 1 µM.
`COC(=O)c1ccc(-c2nnc(Nc3cc(OC)cc(C(F)(F)F)c3)c3ccccc23)cc1` [Compound 32, methyl 4-(4-{[3-(methyloxy)-5-(trifluoromethyl)phenyl]amino}phthalazin-1-yl)benzoate]: the IC50 lay within 0.5 to 1 µM.
To `FC(F)(F)c1cc(Nc2nnc(-c3ccc4cn[nH]c4c3)c3ccccc23)cc(C(F)(F)F)c1` [Compound 33, N-[3,5-bis(trifluoromethyl)phenyl]-4-(1H-indazol-6-yl)phthalazin-1-amine] belongs no more than 0.15 µM.
As to `COC(=O)c1ccc(-c2nnc(Nc3ccc(OC)c(C(F)(F)F)c3)c3ccccc23)cc1` [Compound 34, methyl 4-(4-{[4-(methyloxy)-3-(trifluoromethyl)phenyl]amino}phthalazin-1-yl)benzoate], the IC50 was 0.5 to 1 µM.
Then `COC(=O)c1ccc(-c2nnc(Nc3cc(F)cc(C(F)(F)F)c3)c3ccccc23)cc1` [Compound 35, methyl 4-(4-{[3-fluoro-5-(trifluoromethyl)phenyl]amino}phthalazin-1-yl)benzoate], with 0.15 to 0.5 µM; and `COC(=O)c1ccc(-c2nnc(Nc3cc(NCCN(C)C)cc(C(F)(F)F)c3)c3ccccc23)cc1` [Compound 36, methyl 4-(4-{[3-{[2-(dimethylamino)ethyl]amino}-5-(trifluoromethyl)phenyl]amino}phthalazin-1-yl)benzoate], with 0.15 to 0.5 µM.
Then `Nc1n[nH]c2cc(-c3nnc(Nc4cc(C(F)(F)F)cc(C(F)(F)F)c4)c4ccccc34)ccc12` [Compound 38, 4-(3-amino-1H-indazol-6-yl)-N-[3,5-bis(trifluoromethyl)phenyl]phthalazin-1-amine], with no more than 0.15 µM.
`COC(=O)c1ccc(-c2nnc(Nc3cccc(C(F)(F)F)c3)c3ncccc23)cc1` [Compound 39, methyl 4-(8-{[3-(trifluoromethyl)phenyl]amino}pyrido[2,3-d]pyridazin-5-yl)benzoate]: the IC50 was 2 to 30 µM.
Then `O=C(O)c1ccc(-c2nnc(Nc3cc(C(F)(F)F)cc(C(F)(F)F)c3)c3ccccc23)cc1` [Compound 40, 4-(4-{[3,5-bis(trifluoromethyl)phenyl]amino}phthalazin-1-yl)benzoic acid], with 2 to 30 µM; and `COC(=O)c1ccc(-c2nnc(Nc3cccc(OC(F)(F)F)c3)c3ccccc23)cc1` [Compound 43, methyl 4-[4-({3-[(trifluoromethyl)oxy]phenyl}amino)phthalazin-1-yl]benzoate], with 0.15 to 0.5 µM.
For the compound `COC(=O)c1ccc(-c2nnc(Nc3cc(Br)cc(C(F)(F)F)c3)c3ccccc23)cc1` [Compound 44, methyl 4(4-{[3-bromo-5-(trifluoromethyl)phenyl]amino}phthalazin-1-yl)benzoate], the IC50 is 0.15 to 0.5 µM.
To `FC(F)(F)c1cc(Nc2nnc(-c3ccc4nn[nH]c4c3)c3ccccc23)cc(C(F)(F)F)c1` [Compound 45, 4-(1H-1,2,3-benzotriazol-6-yl)-N-[3,5-bis(trifluoromethyl)phenyl]phthalazin-1-amine] belongs 1 to 2 µM.
